Laboratory results taken from patent EP4772505A1, “COMPOUND FOR DEGRADING ANDROGEN RECEPTOR AND MEDICAL USE THEREOF” (Ubix Therapeutics, Inc., priority 2023, dated 2025).

Target: T1, Androgen Receptor (AR) (Homo sapiens, UniProt P10275, T878A)
T1 construct: endogenous in cells; host or cells: LNCaP
T1 sequence (P10275 1-920 T878A): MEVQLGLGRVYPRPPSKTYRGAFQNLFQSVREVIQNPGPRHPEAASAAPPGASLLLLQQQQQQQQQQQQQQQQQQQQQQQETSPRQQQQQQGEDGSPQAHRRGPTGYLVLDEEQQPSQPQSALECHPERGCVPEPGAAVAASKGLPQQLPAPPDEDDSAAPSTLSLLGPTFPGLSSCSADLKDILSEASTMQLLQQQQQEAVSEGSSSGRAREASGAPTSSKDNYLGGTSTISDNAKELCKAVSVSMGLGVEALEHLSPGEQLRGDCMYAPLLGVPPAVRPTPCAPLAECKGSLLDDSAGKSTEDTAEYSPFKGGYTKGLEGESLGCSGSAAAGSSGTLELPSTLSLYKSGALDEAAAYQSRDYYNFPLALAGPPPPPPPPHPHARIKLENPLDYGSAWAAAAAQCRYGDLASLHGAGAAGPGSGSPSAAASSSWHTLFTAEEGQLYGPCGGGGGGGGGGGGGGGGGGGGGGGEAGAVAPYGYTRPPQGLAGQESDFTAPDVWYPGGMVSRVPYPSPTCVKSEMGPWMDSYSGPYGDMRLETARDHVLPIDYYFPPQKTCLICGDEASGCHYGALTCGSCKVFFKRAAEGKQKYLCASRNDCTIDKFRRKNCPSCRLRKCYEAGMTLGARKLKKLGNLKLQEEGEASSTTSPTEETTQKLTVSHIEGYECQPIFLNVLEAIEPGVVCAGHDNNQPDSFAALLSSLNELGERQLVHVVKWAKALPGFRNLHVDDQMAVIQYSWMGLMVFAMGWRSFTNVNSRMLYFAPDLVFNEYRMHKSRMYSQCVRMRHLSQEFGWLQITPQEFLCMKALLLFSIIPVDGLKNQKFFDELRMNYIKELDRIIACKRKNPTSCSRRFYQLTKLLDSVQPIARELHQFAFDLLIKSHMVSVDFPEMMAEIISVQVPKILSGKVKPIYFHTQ
Test: Measurement of AR protein degradation in LNCaP cells by Western blotting
Format: cell-based
Details: LNCaP, 20 h, read-out: AR degradation in LNCaP cells (%)
Experimental: The amount of AR protein present in LNCaP or VCaP cells was measured after treating them with the synthesized compound. The amount of AR protein was measured using Western blotting. The protocol for the experiments using LNCaP or VCaP cells was as follows.
[Culture] LNCaP cells were resuspended in RPMI1640 medium + HEPES (Hyclone, SH30255.01), 10% FBS (Hyclone, SV30207.02), and 1% Penicillin-streptomycin (Welgene, LS 202-02). 3 x 10^5 cells/mL were seeded in 12-well plates (1 mL per well) and cultured for 3 days. VCaP cells were resuspended in IMDM MEDIUM (Hyclone, SH30228.01), 20% FBS (Hyclone, SV30207.02), and 1% Penicillin-streptomycin (Welgene, LS 202-02), seeded at 9 x 10^5/mL in 1 mL per 12-well plate, and cultured for 3 days.
[Compound Treatment] 10 µL of 100x stock (e.g., 0.1, 1, 10 µM) compound solution at the final compound treatment concentration (e.g., 0.001, 0.01, 0.1 µM) was added to each well in 1 mL media, and cells were harvested after 20 hours. For DC50 measurement, 100x stock (0.01, 0.1, 1, 10, 100, 1000 µM) compound solutions at the final compound treatment concentration (0.0001, 0.001, 0.01, 0.1, 1, 10 µM) were used.
[Cell lysis] The cell pellet was suspended using 1% SDS lysis buffer (50 mM Tris, 1 mM EDTA, 1% SDS, pH 8.0, 0.5 mM PMSF, 1x Protease/Phosphatase inhibitor Cocktail (Cell Signaling Technology, 5872S)), and sonication (70% AMP, 10 cycles (30 sec ON/59 sec OFF)) was performed. After centrifugation at 4°C and 20,000 g for 20 minutes, the cell lysate was obtained and transferred to a new tube.
[Protein Quantification] A BCA protein assay (SMART™ BCA Protein Assay Kit, iNtRON Biotechnology, 21071) was performed using a 96-well microplate. 5 µL of cell lysate and 5 µL of 1% SDS lysis buffer were added to each well of the 96-well plate, followed by an additional 200 µL of BCA reagent (Reagent A: Reagent B = 50:1). The wells were incubated at 37°C for 30 minutes and cooled to room temperature for 10 minutes. After shaking for 10 seconds, the absorbance was measured at a wavelength of 562 nm. The unknown protein concentration was determined using a BSA standard curve (0, 0.125, 0.25, 0.5, 1, 2 mg/mL). Western blotting samples were prepared by mixing cell lysate, 1% SDS lysis buffer, 4x NuPAGE™ LDS Sample buffer (Invitrogen, NP0008), and 10X NuPAGE™ Sample Reducing Agent (Invitrogen, NP0009) and boiling at 70°C for 10 minutes.
[Electrophoresis] 10 µg of protein sample was loaded into each well of a NuPAGE™ 4 to 12%, Bis-Tris, 1.0 mm Mini Protein Gel, 15-well, 17-well, or 26-well (Invitrogen, NP0323BOX, NP0329BOX, or WG1403BOX) and electrophoresed for 40 minutes using NuPAGE™MES SDS Running Buffer (Invitrogen, NP0002) at 200 V (constant V).
[Transfer] Transfer was performed for 15 or 18 minutes using the electrophoresed gel and the Trans-Blot® Turbo™ Transfer Starter System (Bio-RAD, #17001918, Mini Nitrocellulose) at 1.3 A (constant A) and 25 V (limit V). To confirm protein transfer, 15 mL of Ponceau S solution (Sigma, P7170-1L) was used to stain for 1 minute, and then washed to check the degree of transfer.
[Blocking] The membrane for AR and GAPDH detection was blocked with 5% skim milk/0.2% TBST (Skim milk: BD, 232100/ 20X TBS: Biosesang, TR2008-100-00/ 10% Tween 20 Solution: Bio-RAD, #161-0781) for 45 minutes.
[Antibodies and Detection] Primary AR antibody (Androgen Receptor: CST, 5153S) was mixed with 5% skim milk/0.2% TBST at a ratio of 1:1,000 and reacted at room temperature for 3 hours or at 4°C overnight. Primary GAPDH antibody (CST, 2118S) was mixed with 5% skim milk/0.2% TBST at a ratio of 1:2,000 and reacted at room temperature for 3 hours or at 4°C overnight. Afterwards, TBST (0.2% Tween 20) was used for washing three times every 5 minutes. Secondary antibody to AR antibody, Anti-rabbit IgG, HRP-linked Antibody (CST, 7074S), was mixed with 5% skim milk/0.2% TBST at a ratio of 1:5,000 and reacted at room temperature for 45 minutes. […]

N#Cc1ccc(N2CCC(C(=O)Nc3ccc(OC4CCN(CC5CCN(c6ccc(NC7CCC(=O)NC7=O)cc6F)CC5)CC4)cn3)CC2)cc1C(F)(F)F (stereo not shown) [Example 1, 1-(4-cyano-3-(trifluoromethyl)phenyl)-N-(5-((1-((1-(4-((2,6-dioxopiperidin-3-yl)amino)-2-fluorophenyl)piperidin-4-yl)methyl)piperidin-4-yl)oxy)pyridin-2-yl)piperidine-4-carboxamide] gave a Dmax at 0.01 µM of 84% and a Dmax at 0.1 µM of 99%.
Molecule N#Cc1ccc(N2CCC(C(=O)Nc3ccc(OC4CCN(CC5CCN(c6ccc(NC7CCC(=O)NC7=O)cc6F)CC5)CC4)cn3)CC2)c(F)c1Cl (stereo not shown) [Example 12, 1-(3-chloro-4-cyano-2-fluorophenyl)-N-(5-((1-((1-(4-((2,6-dioxopiperidin-3-yl)amino)-2-fluorophenyl)piperidin-4-yl)methyl)piperidin-4-yl)oxy)pyridin-2-yl)piperidine-4-carboxamide] has a Dmax at 0.01 µM of 88% and a Dmax at 0.1 µM of 96%.
With N#Cc1ccc(N2CCC(C(=O)Nc3ccc(OC4CCN(CC5CCN(c6ccc(NC7CCC(=O)NC7=O)cc6F)CC5)CC4)nn3)CC2)c(F)c1Cl (stereo not shown) [Example 15, 1-(3-chloro-4-cyano-2-fluorophenyl)-N-(6-((1-((1-(4-((2,6-dioxopiperidin-3-yl)amino)-2-fluorophenyl)piperidin-4-yl)methyl)piperidin-4-yl)oxy)pyridazin-3-yl)piperidine-4-carboxamide] the Dmax at 0.01 µM was 88% and the Dmax at 0.1 µM was 90%.
For N#Cc1ccc(N2CCC(C(=O)Nc3ccc(OC4CCN(CC5CCN(c6ccc(N[C@@H]7CCC(=O)NC7=O)cc6F)CC5)CC4)cn3)CC2)cc1C(F)(F)F [Example 3, (R)-1-(4-cyano-3-(trifluoromethyl)phenyl)-N-(5-((1-((1-(4-((2,6-dioxopiperidin-3-yl)amino)-2-fluorophenyl)piperidin-4-yl)methyl)piperidin-4-yl)oxy)pyridin-2-yl)piperidine-4-carboxamide], the Dmax at 0.01 µM was 93% and the Dmax at 0.1 µM was 99%.
N#Cc1ccc(N2CCC(C(=O)Nc3ccc(OC4CCN(CC5CCN(c6ccc(N[C@H]7CCC(=O)NC7=O)cc6F)CC5)CC4)cn3)CC2)cc1Cl [Example 9, (S)-1-(3-chloro-4-cyanophenyl)-N-(5-((1-((1-(4-((2,6-dioxopiperidin-3-yl)amino)-2-fluorophenyl)piperidin-4-yl)methyl)piperidin-4-yl)oxy)pyridin-2-yl)piperidine-4-carboxamide] showed a Dmax at 0.01 µM of 86% and a Dmax at 0.1 µM of 96%.
N#Cc1ccc(N2CCC(C(=O)Nc3ccc(OC4CCN(CC5CCN(c6ccc(NC7CCC(=O)NC7=O)cc6F)CC5)CC4)cn3)CC2)cc1Cl (stereo not shown) [Example 8, 1-(3-chloro-4-cyanophenyl)-N-(5-((1-((1-(4-((2,6-dioxopiperidin-3-yl)amino)-2-fluorophenyl)piperidin-4-yl)methyl)piperidin-4-yl)oxy)pyridin-2-yl)piperidine-4-carboxamide] was tested, and the Dmax at 0.01 µM was 91% and the Dmax at 0.1 µM was 98%.
Work on N#Cc1ccc(N2CCC(C(=O)Nc3ccc(OC4CCN(CC5CCN(c6ccc(N[C@@H]7CCC(=O)NC7=O)cc6F)CC5)CC4)cn3)CC2)cc1Cl [Example 10, (R)-1-(3-chloro-4-cyanophenyl)-N-(5-((1-((1-(4-((2,6-dioxopiperidin-3-yl)amino)-2-fluorophenyl)piperidin-4-yl)methyl)piperidin-4-yl)oxy)pyridin-2-yl)piperidine-4-carboxamide] yielded a Dmax at 0.01 µM of 90% and a Dmax at 0.1 µM of 99%.
In the case of N#Cc1ccc(N2CCC(C(=O)Nc3ccc(OC4CCN(CC5CCN(c6ccc(NC7CCC(=O)NC7=O)cc6F)CC5)CC4)nn3)CC2)cc1C(F)(F)F (stereo not shown) [Example 7, 1-(4-cyano-3-(trifluoromethyl)phenyl)-N-(6-((1-((1-(4-((2,6-dioxopiperidin-3-yl)amino)-2-fluorophenyl)piperidin-4-yl)methyl)piperidin-4-yl)oxy)pyridazin-3-yl)piperidine-4-carboxamide], the Dmax at 0.01 µM is reported as 79% and the Dmax at 0.1 µM is reported as 93%.
